From ChEMBL document CHEMBL1759854, “Inhibitors of the tyrosine kinase EphB4. Part 4: Discovery and optimization of a benzylic alcohol series” (Bioorg Med Chem Lett, 2011) come the findings set out here.

A short description of one data set: physchem. The conditions noted are these: octanol/water.
Data set [1] in a line: Volume of distribution at steady state in Han Wistar rat at 1 or 2.5 µmol/kg, iv and 5 or 10 µmol/kg, po. The conditions noted are these: in vivo, read-out: Vdss.
A short description of data set [2]: AUC in nude mouse at 200 umol/kg, po. In kind it is ADME, organism-based. The conditions noted are these: plasma.
The nature of data set [3]: AUC in nude mouse at 100 umol/kg, po. Type of data set: ADME, organism-based. The settings on record: plasma.
A further data set deals with Rattus norvegicus. The data set is described as follows: Clearance in Han Wistar rat assessed as liver blood flow at 1 or 2.5 µmol/kg, iv and 5 or 10 µmol/kg, po. The settings on record: in vivo.
Data set [4] is described as follows: Cmax in nude mouse at 10 umol/kg, po. In kind it is ADME, organism-based. On the set-up: dose 10 umol/kg, route oral. The settings on record: in vivo.
In the next data set the test system is Canis familiaris. The data set is described as follows: Clearance in Beagle dog assessed as liver blood flow at 2 umol/kg, iv and 5 umol/kg, po. Type of data set: ADME, organism-based, Canis lupus familiaris. The settings on record: in vivo.
Data set [5] in a line: Oral bioavailability in Beagle dog at 5 umol/kg, po. In kind it is ADME, organism-based, Canis lupus familiaris. The conditions noted are these: in vivo.
The nature of data set [6]: Volume of distribution at steady state in Beagle dog at 2 umol/kg, iv and 5 umol/kg, po. Type of data set: ADME, organism-based, Canis lupus familiaris. The conditions noted are these: in vivo, read-out: Vdss.
Data set [7] in a line: Oral bioavailability in Han Wistar rat at 5 or 10 µmol/kg, po. The conditions noted are these: in vivo.
Data set [8] is described as follows: Cmax in nude mouse at 100 umol/kg, po. Type of data set: ADME, organism-based. The conditions noted are these: in vivo. On the set-up: dose 100 umol/kg, route oral.
The nature of data set [9]: Cmax in nude mouse at 200 umol/kg, po. The conditions noted are these: in vivo. The arrangement: dose 200 umol/kg, route oral. In kind it is ADME, organism-based.
The nature of data set [10]: AUC in nude mouse at 10 umol/kg, po. Type of data set: ADME, organism-based. The conditions noted are these: plasma.

The logD is the decadic logarithm of the distribution of all forms, ionised or not, between an organic phase and buffer at a given pH. For `Cc1ccc(CO)cc1N(c1ccnc(Nc2cc(N3CCOCC3)cc(S(C)(=O)=O)c2)n1)C(C)C`, the logD in “physchem” is 3.4.

A word on the AUC: it is the area under the concentration-time curve, a measure of exposure. A higher AUC goes with high exposure. In general, Cmax refers to the peak of the concentration-time curve. A word on the bioavailability: it is dose-corrected exposure relative to a reference, in per cent. For `Cc1ccc(CO)cc1N(C)c1ccnc(Nc2cc(N3CCOCC3)cc(N3CCOCC3)c2)n1`, the Vd came out at 0.5 L/kg in data set [1] and 2.1 L/kg in data set [6]. This compound displayed a logD in “physchem” of 3.1. In addition, the results for the AUC in data set [2], in data set [3] and in data set [10] were 155 µM·h, 63 µM·h and 1.6 µM·h, respectively. The LBF in the data set with Rattus norvegicus worked out at 11%; in the data set on Canis familiaris it was 51%. Further, the results for the Cmax in data set [4], in [8] and in data set [9] were 1900 nM, 15 µM and 17 µM, respectively. In addition, the figures for the bioavailability in [5] and in data set [7] were 58% and 78%, respectively.

Turning to `Cc1ccc(CO)cc1N(C)c1ccnc(Nc2cc(N3CCCC3)cc(N3CCOCC3)c2)n1`, in the data set “physchem”, the logD amounted to 3.8.

Take `Cc1ccc(CO)cc1N(C)c1ccnc(Nc2cc(N3CCCCC3)cc(N3CCOCC3)c2)n1`: the log distribution coefficient (logD) in the data set “physchem” was found to be 4.2.

`Cc1ccc(CO)cc1N(C)c1ccnc(Nc2cc(N3CCCOCC3)cc(N3CCOCC3)c2)n1`: the logD in “physchem” came to 3.3.

In turn, `Cc1ccc(CO)cc1N(C)c1ccnc(Nc2cc(N3CCOCC3)cc(N3CCN(O)CC3)c2)n1` registered a logD in “physchem” of 2.8.

`Cc1ccc(CO)cc1N(C)c1ccnc(Nc2cc(CN3CCOCC3)cc(N3CCOCC3)c2)n1` came in with a logD in “physchem” of 3.

Compound `Cc1ccc(CO)cc1N(C)c1ccnc(Nc2cc(C(=O)N3CCOCC3)cc(N3CCOCC3)c2)n1` registered a logD in the data set “physchem” of 2.2.

In turn, `Cc1ccc(CO)cc1N(C)c1ccnc(Nc2cc(OC3CCOCC3)cc(N3CCOCC3)c2)n1` displayed a logD in “physchem” of 3.7.

Regarding `COCCOc1cc(Nc2nccc(N(C)c3cc(CO)ccc3C)n2)cc(N2CCOCC2)c1`, the logD in “physchem” was 3.3.

For `COc1cc(Nc2nccc(N(C)c3cc(CO)ccc3C)n2)cc(N2CCOCC2)c1`, the logD in the data set “physchem” was 3.9.

Turning to `Cc1ccc(CO)cc1N(C)c1ccnc(Nc2cc(N3CCOCC3)cc(S(C)(=O)=O)c2)n1`, the Vd in data set [1] came to 0.4 L/kg. Also, the LBF in the data set with Rattus norvegicus was found to be 16%. This compound had a bioavailability in [7] of 17%.

In “physchem”, `CCN(c1ccnc(Nc2cc(N3CCOCC3)cc(N3CCOCC3)c2)n1)c1cc(CO)ccc1C` returned a logD of 3.8.

Take `COCCN(c1ccnc(Nc2cc(N3CCOCC3)cc(N3CCOCC3)c2)n1)c1cc(CO)ccc1C`: the logD in the data set “physchem” came to 2.8.

`Cc1ccc(CO)cc1N(C)c1ccnc(Nc2cc(N3CCOCC3)nc(N3CCOCC3)c2)n1`: the Vd was 0.7 L/kg in data set [1] and 1.6 L/kg in [6]. In “physchem”, this compound had a logD of 3.4. In addition, the LBF in the data set with Rattus norvegicus stood at 9%; in the data set with Canis familiaris it was 57%. Besides, the bioavailability worked out at 22% in data set [5] and 64% in data set [7].

In “physchem”, `Cc1ccc(CO)cc1N(C)c1ccnc(Nc2cc(N3CCOCC3)nc(N3CCOCC3)n2)n1` registered a logD of 3.9.
